The record followed here is patent US20230174526A1, “BENZOTHIAZOLYL BIARYL COMPOUND, AND PREPARATION METHOD AND USE” (SHANGHAI RINGENE BIOPHARMA CO., LTD., priority 2020, published 2023).

Like-named read-outs stand apart in the source and are kept apart here. A value given as a limit tells only on which side of the number the result lay.

A short description of data set [1]: Metabolic stability assay, monkey liver microsomes. In kind it is in vitro ADME. To be noted: monkey liver microsomes 0.5 mg/mL, 1 µM compound, read-out: Liver microsomal stability (T½ /min) monkey. Here is the method: (§1) Metabolic stability assay: A warm incubation for metabolic stability was performed with a system of 150 µL of liver microsomes (final concentration 0.5 mg/mL) containing NADPH (final concentration 1 mM), 1 µM of the test compound and positive control midazolam or negative control atenolol, and the reaction was terminated with acetonitrile containing tinidazole at 0 min, 5 min, 10 min and 30 min, respectively. The reaction was vortexed for 10 min and centrifuged at 15000 rmp for 10 min, and 50 µL of supernatant was taken into the 96-well plate for sampling. The metabolic stability of the compound was calculated by measuring the relative reduction of the drugs.
On the technique in general: Microsomes from liver hold many membrane-bound enzymes, among them those of drug oxidation.

The target in a further data set is T1, KRAS^G12C/SOS1 (Homo sapiens, UniProt P01116, G12C).
T1 construct: purchased CisBio
T1 sequence (P01116 1-188 isoform P01116-2 G12C): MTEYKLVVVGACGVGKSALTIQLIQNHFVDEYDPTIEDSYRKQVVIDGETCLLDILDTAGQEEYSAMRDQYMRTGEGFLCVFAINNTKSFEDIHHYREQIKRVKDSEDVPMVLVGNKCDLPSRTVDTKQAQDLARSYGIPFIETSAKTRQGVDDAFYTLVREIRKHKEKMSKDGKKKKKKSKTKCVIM
Kind of data set: KRAS^G12C/SOS1 protein-protein interaction Binding assay (CisBio kit). To be noted: class symbols. Here is the method: CisBio’s KRAS^G12C/SOS1 kit was used to test the efficacy of the compound on inhibiting the protein-protein interaction between SOS1 and KRAS^G12Cby Binding assay.Results were expressed as IC50values.
Test methods: (1) the test compound was tested at a concentration of 1000 nM. Diluted to 3-fold diluted compound of a 200-fold final concentration of 100% DMSO solution in a 384-well plate at 10 concentrations. 50 nL of 200-fold final concentration of compound was transferred to the destination plate 384 well plate using a dispenser Echo 550.50 nL of 100% DMSO was added to the negative control wells and positive control wells; (2) 4-fold final concentration of Tag1 SOS1 solution was prepared using Diluent buffer; (3) 2.5 µL of 4-fold final concentration of Tag1 SOS1 solution was added to the 384-well plate; (4) 4-fold final concentration of Tag2 KRAS^G12C solution was prepared using Diluent buffer; (5) 2.5 µL of 4-fold final concentration of Tag2 KRAS^G12C solution was added to compound wells and positive control wells, respectively; 2.5 µL of diluent buffer was added to negative control wells; (6) the 384-well plate was centrifuged at 1000 rpm for 30 seconds, shaken and mixed, and incubated at room temperature for 15 min; (7) 1-fold final concentration of Anti Tag1 TB3+ solution and 1-fold final concentration of Anti Tag2 XL665 solution were prepared with Detection buffer, and 5 µL of the mixture was added to each well after mixing the two solutions; (8) the 384-well plate was centrifuged at 1000 rpm for 30 seconds, shaken and mixed, and incubated at room temperature for 120 minutes; (9) the Envision enzyme marker was used to read
Em665/620; (10) data analysis, calculation formula; where Min signal is the mean value of negative control wells, Max signal is the mean value of positive control wells.The log value of concentration was used as the X-axis and the percentage inhibition as the Y-axis to fit the quantitative efficacy curve using the log(inhibitor) vs. response Variable slope of the quantitative efficacy curve of the analytical software GraphPad Prism 5 to derive the IC50 value of each compound on the enzyme activity.The fitting formula was: Y=Bottom+(Top Bottom)/(1+10^A((LogIC50X)^∗ HillSlope)).

Data set [2] is described as follows: Metabolic stability assay, mouse liver microsomes. Type of data set: in vitro ADME. The settings on record: mouse liver microsomes 0.5 mg/mL, 1 µM compound, read-out: Liver microsomal stability (T½ /min) Mouse. Here is the method:
as §1

Data set [3] can be described thus: Metabolic stability assay, rat liver microsomes. In kind it is in vitro ADME. The settings on record: rat liver microsomes 0.5 mg/mL, 1 µM compound, read-out: Liver microsomal stability (T½ /min) Rat. As for the experimental part: as §1
Data set [4] is described as follows: Metabolic stability assay, human liver microsomes. In kind it is in vitro ADME. To be noted: human liver microsomes 0.5 mg/mL, 1 µM compound, read-out: Liver microsomal stability (T½ /min) human. Here is the method: as §1
The subject of data set [5] is NCI-H358 (lung cancer) cells. Briefly: Proliferation test method 1 (2D, MTT), NCI-H358. Type of data set: cell-based. To be noted: Homo sapiens, 5-7 days, read-out: IC50 proliferation inhibitory activity against NCI-H358. Here is the method:
(§2) Test method 1 (2D):NCI-H358 (lung cancer) and MiaPaca-2 cells (pancreatic cancer) cells (100 µL/well, 20,000 cells/mL) were inoculated in 96-well culture plates supplemented with 10% fetal bovine serum and 1% penicillin/streptomycin sulfate, respectively.Using 0.5% dimethyl sulfoxide as a blank control, cells were treated with a solution of the compound to be tested at a starting concentration of 10 µM, tripled diluted testing solution of the compound in eight gradients were used to treat cells, and then incubated in a 5% CO2 incubator for a certain period of time (5-7 days).At the end of incubation, 10 µL of MTT stock solution (5 mg/mL) was added to each well.The culture plates were incubated at 37° C. for 4 h and then the medium was removed.Dimethyl sulfoxide (100 µL) was added to each well and then shaken sufficiently. The absorbance of the product formazanwas measured at 570 nm on the Thermo Scientific Varioskan Flash multimode reader.IC50 values were obtained by fitting dose-response data into a three-parameter nonlinear regression model using GraphPad Prism 6.0 software.

Data set [6] concerns phosphorylated ERK levels of NCI-H358. Briefly: ERK phosphorylation (western blot), H358. In kind it is cell-based. To be noted: Homo sapiens, 3 h. As for the experimental part: (§3) Test method 3 (ERK phosphorylation): Miapaca-2 or H358 cells were inoculated at certain concentrations in 96-well plates and incubated overnight at 37° C., 5% CO2 in a cell culture incubator, and serial dilutions of the test compound (5 concentrations, 3-fold dilution) were added to the plates the next day for 24 h (Miapaca-2) or 3 h (H358), then lysis solution containing protease and phosphatase inhibitor were added to lyse the cells to extract proteins and western blot method was used to detect the level of p-ERK.
On the technique in general: A western blot detects proteins with antibodies after separation by electrophoresis.

Data set [7] has as its system phosphorylated ERK levels of MiaPaca-2. Kind of data set: ERK phosphorylation (western blot), MiaPaca-2. In kind it is cell-based. To be noted: Homo sapiens, MIA PaCa-2, 24 h. As for the experimental part:
as §3

Another data set relates to MiaPaca-2 cells. Briefly: Proliferation test method 2 (3D, Cell Titer Glo 3D), MiaPaca-2. Type of data set: cell-based. To be noted: Homo sapiens, MIA PaCa-2, 96 h, read-out: IC50 cell proliferation inhibitory activity against MiaPaca-2. Here is the method: (§4) Test method 2 (3D): The tumor cells in the logarithmic growth phase were diluted with culture solution to a certain concentration and inoculated on the 96-well plate on the ultra-low attachment surface, and the culture medium was 80 µL/well. Cells were incubated overnight at 37° C. in a humidity chamber. On the second day, a series of diluted test compounds (10 concentrations, 3 times dilution) were added to the plate, 20 µL/well, incubated in an incubator for 96h.The plates are removed and placed at room temperature and incubated with an equal volume of Cell Titer Glo®3D reagent for 1 h. The signal is detected by the En Vision™ plate reader. […] A four-parameter nonlinear regression curve was fitted to the percent inhibition for each concentration of the compound and the IC50 was calculated.
In general terms: In ATP-based viability assays light output follows the ATP content of the culture.

The test system of the next data set is NCI-H358 cells. Kind of data set: Proliferation test method 2 (3D, Cell Titer Glo 3D), NCI-H358. Type of data set: cell-based. To be noted: Homo sapiens, NCI-H358, 96 h, read-out: IC50 cell proliferation inhibitory activity against NCI-H358. As for the experimental part: as §4
For data set [8], the system named is MiaPaca-2 cells (pancreatic cancer). Kind of data set: Proliferation test method 1 (2D, MTT), MiaPaca-2. In kind it is cell-based. The settings on record: 5-7 days, read-out: IC50/nM proliferation inhibitory activity on MiaPaca-2 cells. Here is the method: as §2

Regarding `C=CC(=O)N1CC2C(=O)N(C)c3cnc4c(F)c(-c5c(O)cccc5F)c(Cl)cc4c3N2CC1C` (single isomer, unassigned) [Comparative Compound 2-1, reference compound], the half-life at 1 µM in data set [1] was 42 min; in data set [2] it was 47 min; in [3], 41 min; in data set [4] it was 54 min. This molecule came in with an IC50 on KRAS^G12C/SOS1 of 50 to 200 nM.
Take `C=CC(=O)N1CCN(c2nc(OC[C@@H]3CCCN3C)nc3c(F)c(-c4ccc(F)c5sc(N)nc45)c(Cl)cc23)CC1` [Example 1, 1-(4-(7-(2-Amino-7-Fluorobenzo [d] Thiazol-4-yl) -6-Chloro-8-Fluoro-2-(((S)-1-Methylpyrrolin-2-yl) Methoxy) Quinazolin-4-yl) Piperazin-1-Yl) Prop-2-En-1-One]: the IC50 on KRAS^G12C/SOS1 was less than 50 nM; in [5], less than 100 nM; in [6] it was less than 500 nM; in data set [7], less than 500 nM. Further, in [4], the half-life at 1 µM is more than 30 min.
For `C=CC(=O)N1CCN(c2c(C#N)cnc3c(F)c(-c4ccc(F)c5sc(N)nc45)c(Cl)cc23)[C@@H](C)C1` [Example 10, 4-((S)-4-Acryloyl-2-Methylpiperazin-1-yl)-7-(2-Amino-7-Fluorobenzo[d]Thiazol-4-yl)-6-Chloro-8-Fluoroquinolin-3-Cyano], the IC50 at KRAS^G12C/SOS1 was 50 to 200 nM; in [5], less than 100 nM; with MiaPaca-2 cells, less than 200 nM; in data set [6], less than 500 nM; in the data set on NCI-H358 cells, less than 200 nM; in data set [8] (2D) it was 57.2 nM. Also, the IC50 in data set [8] (Homo sapiens, MIA PaCa-2, 2D) is less than 100 nM; in data set [7], less than 500 nM.
Consider `C=C(F)C(=O)N1CCN(c2c(C#N)c(OC[C@@H]3CCCN3C)nc3c(F)c(-c4ccc(F)c5sc(N)nc45)c(Cl)cc23)CC1` [Example 14], for which the half-life at 1 µM in data set [1], in [2] and in [4] was more than 30 min each time. Moreover, the IC50 on KRAS^G12C/SOS1 was 50 to 200 nM; in [8] (Homo sapiens, MIA PaCa-2, 2D), 0.9 nM.
Turning to `C=CC(=O)N1CCN(c2c(C#N)cnc3c(F)c(-c4ccc(F)c5sc(N)nc45)c(Cl)cc23)C[C@H]1C` [Example 16, 4-((R)-4-Acryloyl-3-Methylpiperazin-1-yl)-7-(2-Amino-7-Fluorobenzo [d] Thiazol-4-yl)-6-Chloro-8-Fluoroquinolin-3 -Cyano], the IC50 is 50 to 200 nM on KRAS^G12C/SOS1; less than 100 nM in data set [5]; less than 200 nM in the data set with MiaPaca-2 cells; less than 500 nM in [6]; less than 200 nM in the data set with NCI-H358 cells; less than 500 nM in data set [7].
On to `C=CC(=O)N1CCN(c2c(C#N)c(OCCN(C)C)nc3c(F)c(-c4ccc(F)c5sc(N)nc45)c(Cl)cc23)CC1` [Example 20, 4-(4-Acryloyl Piperazin-1-yl)-7-(2-Amino-7-Fluorobenzo [d] Thiazol-4-yl) -6-Chloro-2-(2-(Dimethylamino) Ethoxy)-8-Fluoroquinolin-3 -Cyano], for which the half-life at 1 µM in [1], in data set [2] and in data set [3] was more than 30 min throughout. For the same molecule, the IC50 on KRAS^G12C/SOS1 is less than 50 nM; in [5] it was less than 100 nM; with MiaPaca-2 cells, less than 200 nM; in data set [6] it was less than 500 nM; in the data set on NCI-H358 cells it was less than 200 nM; in data set [7] it was less than 500 nM.
As for `C=CC(=O)N1CCN(c2nc(OC[C@@H]3CCCN3C)nc3c(F)c(-c4ccc(F)c5sc(N)nc45)c(Cl)cc23)[C@@H](C)C1` [Example 23, 1-((3S)-4-(7-(2-Amino-7-Fluorobenzo [d]thiazol-4-yl) -6-Chloro-8-Fluoro-2-(((S)-1-Methylpyrrolin-2-yl) Methoxy) Quinazolin-4-yl)-3-Methylpiperazin-1-yl) Prop-2-En-1-One], the half-life at 1 µM in [1] and in [3] was more than 30 min each time. The IC50 is less than 50 nM at KRAS^G12C/SOS1 and 1.2 nM in [8] (Homo sapiens, MIA PaCa-2, 2D).
